Measured values reported in the supplement of paper PMC10307832.

Experiments:
Assay in all cases: relative viability (nuclei count vs DMSO), 5 days (fraction); higher = more cells survive
Bleomycin + Navitoclax = compound: CC1=C(N=C(N=C1N)[C@H](CC(=O)N)NC[C@@H](C(=O)N)N)C(=O)N[C@@H]([C@H](C2=CN=CN2)OC3C(C(C(C(O3)CO)O)O)OC4C(C(C(C(O4)CO)O)OC(=O)N)O)C(=O)N[C@H](C)[C@H]([C@H](C)C(=O)N[C@@H]([C@@H](C)O)C(=O)NCCC5=NC(=CS5)C6=NC(=CS6)C(=O)NCCC[S+](C)C)O [Bleomycin] + CC1(C)CCC(c2ccc(Cl)cc2)=C(CN2CCN(c3ccc(C(=O)NS(=O)(=O)c4ccc(N[C@H](CCN5CCOCC5)CSc5ccccc5)c(S(=O)(=O)C(F)(F)F)c4)cc3)CC2)C1 [Navitoclax] (partner 0.5 µM); conditions: main component drawn
Summary of the method: (§1)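 After 5 days of treatment, lung cancer cells in 1536-well plates were fixed and stained in a single step (final 0.05% Triton X-100, 1% formaldehyde, 1 ug/ml Hoechst) and their nuclei counted on 4× images. Treatment had been applied by pin tool the day after seeding as one drug alone or as a fixed anchor-drug dose with five library-drug doses (not always all listed) in √10 steps. Relative viability is the nuclei count of treated wells divided by that of vehicle wells, and values are medians of duplicate plates.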

Etoposide = compound: COc1cc([C@@H]2c3cc4c(cc3[C@@H](O[C@@H]3O[C@@H]5CO[C@@H](C)O[C@H]5[C@H](O)[C@H]3O)[C@H]3COC(=O)[C@H]23)OCO4)cc(OC)c1O [Etoposide]
Summary of the method: (§2)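 For viability, nuclei in each treated well were divided by nuclei in vehicle wells and the median across plates was taken. Lung cancer cell lines in 1536-well plates were pinned with five library-drug doses (not always all listed) spaced by √10, cultured 5 days without medium change, and imaged at 4× after Hoechst staining, with plates passing only at control CV below 25% and at least one doubling.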

Bleomycin = compound: CC1=C(N=C(N=C1N)[C@H](CC(=O)N)NC[C@@H](C(=O)N)N)C(=O)N[C@@H]([C@H](C2=CN=CN2)OC3C(C(C(C(O3)CO)O)O)OC4C(C(C(C(O4)CO)O)OC(=O)N)O)C(=O)N[C@H](C)[C@H]([C@H](C)C(=O)N[C@@H]([C@@H](C)O)C(=O)NCCC5=NC(=CS5)C6=NC(=CS6)C(=O)NCCC[S+](C)C)O [Bleomycin]; conditions: main component drawn
Summary of the method: as §2

Bleomycin + Foretinib = compound: CC1=C(N=C(N=C1N)[C@H](CC(=O)N)NC[C@@H](C(=O)N)N)C(=O)N[C@@H]([C@H](C2=CN=CN2)OC3C(C(C(C(O3)CO)O)O)OC4C(C(C(C(O4)CO)O)OC(=O)N)O)C(=O)N[C@H](C)[C@H]([C@H](C)C(=O)N[C@@H]([C@@H](C)O)C(=O)NCCC5=NC(=CS5)C6=NC(=CS6)C(=O)NCCC[S+](C)C)O [Bleomycin] + COc1cc2c(Oc3ccc(NC(=O)C4(C(=O)Nc5ccc(F)cc5)CC4)cc3F)ccnc2cc1OCCCN1CCOCC1 [Foretinib] (partner 0.25 µM); conditions: main component drawn
Summary of the method: as §1

Cell Line | relative viability (Bleomycin + Navitoclax; first compound 0.01 µM) | relative viability (Bleomycin + Navitoclax; first compound 0.03162 µM) | relative viability (Bleomycin + Navitoclax; first compound 0.1 µM) | relative viability (Bleomycin + Navitoclax; first compound 0.3162 µM) | relative viability (Bleomycin + Navitoclax; first compound 1 µM) | relative viability (Etoposide; 0.01 µM) | relative viability (Etoposide; 0.03162 µM) | relative viability (Etoposide; 0.1 µM) | relative viability (Etoposide; 0.3162 µM) | relative viability (Etoposide; 1 µM) | relative viability (Bleomycin; 0.01 µM) | relative viability (Bleomycin; 0.03162 µM) | relative viability (Bleomycin; 0.1 µM) | relative viability (Bleomycin; 0.3162 µM) | relative viability (Bleomycin; 1 µM) | relative viability (Bleomycin + Foretinib; first compound 0.01 µM) | relative viability (Bleomycin + Foretinib; first compound 0.03162 µM) | relative viability (Bleomycin + Foretinib; first compound 0.1 µM) | relative viability (Bleomycin + Foretinib; first compound 0.3162 µM) | relative viability (Bleomycin + Foretinib; first compound 1 µM)
HCC-44 | 0.674 | 0.323 | 0.278 | 0.161 | 0.191 | 1.06 | 1.03 | 1.02 | 0.899 | 0.594 | 0.587 | 0.445 | 0.361 | 0.226 | 0.209 |  |  |  |  | 
HCC-827 | 0.986 | 1.06 | 0.991 | 0.723 | 0.362 | 1.07 | 1.08 | 0.965 | 0.659 | 0.258 | 0.983 | 1.08 | 0.9 | 0.577 | 0.277 | 0.955 | 1.22 | 0.913 | 0.558 | 0.266
NCI-H1623 |  |  |  |  |  | 0.859 | 0.907 | 0.687 | 0.818 | 0.303 | 0.84 | 0.936 | 0.807 | 0.466 | 0.469 | 0.758 | 0.942 | 0.774 | 0.646 | 0.418
NCI-H2405 | 0.559 | 0.714 | 0.499 | 0.196 | 0.199 | 1.04 | 1.09 | 0.772 | 0.835 | 0.47 | 0.884 | 0.969 | 0.918 | 0.569 | 0.394 | 0.929 | 1.04 | 0.992 | 0.796 | 0.585
PC-3 [JPC-3] | 0.784 | 0.957 | 0.758 | 0.63 | 0.511 | 1.03 | 1.1 | 1.07 | 0.989 | 0.837 | 1.01 | 1.01 | 0.939 | 0.73 | 0.535 | 0.929 | 1.24 | 0.95 | 0.75 | 0.541
NCI-H1651 | 0.944 | 0.82 | 0.614 | 0.272 | 0.136 | 0.976 | 0.997 | 0.792 | 0.485 | 0.199 | 0.865 | 0.825 | 0.711 | 0.456 | 0.254 | 0.716 | 0.499 | 0.496 | 0.31 | 0.213
HARA | 1.1 | 1.08 | 1.02 | 0.747 | 0.601 | 0.856 | 1.18 | 0.979 | 0.849 | 0.348 | 0.804 | 0.769 | 0.842 | 0.506 | 0.537 | 0.794 | 0.793 | 0.777 | 0.397 | 0.379
NCI-H1563 |  |  |  |  |  | 0.816 | 0.974 | 0.791 | 0.641 | 0.55 | 0.843 | 0.836 | 0.783 | 0.625 | 0.652 | 0.838 | 0.803 | 0.734 | 0.647 | 0.61
ABC-1 |  |  |  |  |  | 1.08 | 0.954 | 0.697 | 0.41 | 0.273 | 0.741 | 0.942 | 0.891 | 0.383 | 0.29 | 0.773 | 0.9 | 0.579 | 0.346 | 0.24
SW 900 |  |  |  |  |  | 0.778 | 0.809 | 0.729 | 0.524 | 0.224 | 0.697 | 0.816 | 0.6 | 0.21 | 0.205 | 0.629 | 0.386 | 0.465 | 0.211 | 0.161
NCI-H1648 |  |  |  |  |  |  | 1.01 | 0.783 | 0.674 | 0.516 | 0.71 | 0.696 | 0.773 | 0.608 | 0.68 |  |  |  |  | 
NCI-H1792 | 0.541 | 0.665 | 0.492 | 0.302 | 0.109 | 1.01 | 1.22 | 0.522 | 0.816 | 0.416 | 0.755 | 1.03 | 0.733 | 0.387 | 0.421 |  |  |  |  | 
LCLC-103H |  |  |  |  |  | 0.976 | 1.15 | 0.879 | 0.942 | 0.864 | 0.916 | 0.94 | 0.982 | 0.569 | 0.382 | 0.683 | 0.765 | 0.677 | 0.382 | 0.343
NCI-H358 |  |  |  |  |  | 0.985 | 0.982 | 0.564 | 0.302 | 0.17 | 0.879 | 0.944 | 0.829 | 0.445 | 0.428 | 0.606 | 0.591 | 0.556 | 0.351 | 0.254
NCI-H2342 |  |  |  |  |  | 1.04 | 1.03 | 0.533 | 0.38 | 0.34 | 1.02 | 0.999 | 0.968 | 0.759 | 0.653 | 0.874 | 0.996 | 1.03 | 0.698 | 0.918
NCI-H522 |  |  |  |  |  | 0.977 | 1.04 | 0.811 | 0.928 | 0.743 | 0.833 | 0.79 | 0.666 | 0.432 | 0.345 |  |  |  |  | 
NCI-H650 |  |  |  |  |  | 0.949 | 0.98 | 0.68 | 0.561 | 0.256 | 0.743 | 1.11 | 0.768 | 0.492 | 0.242 | 0.837 | 0.915 | 0.823 | 0.564 | 0.288
NCI-H661 |  |  |  |  |  | 1.03 | 1.03 | 0.873 | 0.827 | 0.565 | 0.907 | 0.875 | 0.767 | 0.475 | 0.394 | 0.896 | 0.924 | 0.689 | 0.393 | 0.357
